Assay results from US5688913A, “CS-1 peptidomimetics, compositions and methods of using the same” (Cytel Corporation, priority 1995, dated 1997).
Where two headings read alike, the source gives them in different places. Square brackets hold non-standard residues; d marks the D form. Peptide text beside a SMILES is read from it. * marks the point of attachment. Phe(4-NO2) = N[C@@H](Cc1ccc([N+](=O)[O-])cc1)C(=O)O; Biotin = O=C1N[C@H]2[C@H](CS[C@H]2CCCCC(=O)*)N1; Quinoline3carbonyl = O=C(c1cnc2ccccc2c1)*; Acetyl(3-pyridyl) = O=C(Cc1cccnc1)*; Pyrazinecarbonyl = O=C(c1cnccn1)*; Quinaldoyl = O=C(c1ccc2ccccc2n1)*; hPhe = N[C@@H](CCc1ccccc1)C(=O)O; Brosyl = O=S(=O)(c1ccc(Br)cc1)*; Cha = N[C@@H](CC1CCCCC1)C(=O)O; Isonicotinoyl = O=C(c1ccncc1)*; Phg = N[C@H](C(=O)O)c1ccccc1; Morpholide = C1CN(*)CCO1; Piperidide = C1CCN(*)CC1; Cbz = O=C(OCc1ccccc1)*; NHDecyl = CCCCCCCCCCN*; PhAc = O=C(Cc1ccccc1)*; Ahx = NCCCCCC(=O)O

Target: VLA-4 (Homo sapiens, UniProt P05556+P13612)
Test: cell-based
Type: cell-based
Design: host or cells: Jurkat (human T lymphoblastic line)
Procedure: Binding inhibition is measured here as a concentration of peptide that inhibits one-half the binding between a standard number of Jurkat cells and a standard amount of CS-1 peptide bound to the surface of a microtiter plate well. Those concentrations are conveniently expressed as IC50 values, smaller numbers indicating a lower concentration required to inhibit 50 percent binding and therefore greater potency. Further specifics of this assay are provided hereinafter.
Jurkat cells (ATCC TIB 152), a human T lymphoblastic line, labeled with ^51 chromium were used to assay in vitro binding inhibition provided by various peptides discussed herein.
The plates were prepared as follows: The 25-mer CS-1 peptide (SEQ ID NO:1) dissolved at 0.5-1 μg/ml in a buffer of 0.1M NaHCO3 at pH 9.5 that also contained 10 μg/ml of bovine serum albumin (BSA) or a conjugate of the CS-1 peptide linked to ovalbumin (CS-1-OVA) dissolved at 1-2.5 μg/ml in the same buffer was used as the substrate. Each well of the microtiter plates was coated with 50 μl of substrate or buffer alone for controls. The wells were permitted to dry out completely and were then rinsed twice with PBS at pH 7.4. Non-specific binding sites of each well were then blocked using 200 μl per well of RPMI/1 percent BSA for two hours at room temperature. Both solid phase-affixed substrates provided similar results.
Jurkat cells (3-5×10^6 cells) were placed into a 15 ml Falcon™ round-bottom tube with a cap. The tube was centrifuged, and the extra medium was then removed.
Two hundred microliters of a ^51 Cr labeling solution were added to the centrifuged cells and maintained in contact with the cells for 90-120 minutes in a warm room. This procedure typically provides about 50,000-100,000 cpm/well with about 80-100 percent cell viability. Longer contact times provide a greater amount of labeling but lower cell viability.
The labeled cells are washed with (i) complete medium, (ii) 1 mM EDTA/PBS and then (iii) RPM1/1 percent BSA free of serum components. The cells are centrifuged after each washing. The cells are finally resuspended in serum-free RPMI/1 percent BSA at a concentration of 1×10^6 viable cells/ml, which provides a concentration that is diluted by one-half in the assay.
Inhibitor peptides are prepared as stock solutions at 20 mg/ml in DMSO in 1.5 ml cryogenic screwcap vials, and were stored at -70° C. Using Flow™ round-bottom or V-bottom microtiter plates, the inhibitor peptides were prepared at twice the assay concentration in RPMI/1 percent BSA at 60 μl well.
Four initial dilutions were typically used.
The ^51 Cr-labeled cells (1×10^6 cells at 60 μl/well) were then admixed with the diluted peptide solutions. The admixtures were maintained at room temperature (about 22° C.) for 30 minutes.
One hundred microliters of each inhibitor peptide/cell admixture were transferred to the substrate-coated wells. This was done in triplicate for each dilution. The resulting plates were incubated for 30 minutes at 37° C. and then washed gently three times with RPMI/1 percent BSA at 200 μl/well. Binding was observed microscopically, particularly after the second wash.
The bound cells were then lysed by the addition of a 0.5 percent solution of sodium dodecylsulfate in water at 100 μ/l well. The resulting solutions were then processed for counting and calculation of IC50 values following usual procedures. Appropriate positive and negative controls were used with each plate so that the results of separate assays could be normalized and compared.
The data of Table 1 are so normalized.

[1] = normalized IC50 relative to standard peptide of SEQ ID NO:3 (=1), about one-tenth or less of the standard is assigned zero

Sequence of VLA-4 (P13612 34-1032): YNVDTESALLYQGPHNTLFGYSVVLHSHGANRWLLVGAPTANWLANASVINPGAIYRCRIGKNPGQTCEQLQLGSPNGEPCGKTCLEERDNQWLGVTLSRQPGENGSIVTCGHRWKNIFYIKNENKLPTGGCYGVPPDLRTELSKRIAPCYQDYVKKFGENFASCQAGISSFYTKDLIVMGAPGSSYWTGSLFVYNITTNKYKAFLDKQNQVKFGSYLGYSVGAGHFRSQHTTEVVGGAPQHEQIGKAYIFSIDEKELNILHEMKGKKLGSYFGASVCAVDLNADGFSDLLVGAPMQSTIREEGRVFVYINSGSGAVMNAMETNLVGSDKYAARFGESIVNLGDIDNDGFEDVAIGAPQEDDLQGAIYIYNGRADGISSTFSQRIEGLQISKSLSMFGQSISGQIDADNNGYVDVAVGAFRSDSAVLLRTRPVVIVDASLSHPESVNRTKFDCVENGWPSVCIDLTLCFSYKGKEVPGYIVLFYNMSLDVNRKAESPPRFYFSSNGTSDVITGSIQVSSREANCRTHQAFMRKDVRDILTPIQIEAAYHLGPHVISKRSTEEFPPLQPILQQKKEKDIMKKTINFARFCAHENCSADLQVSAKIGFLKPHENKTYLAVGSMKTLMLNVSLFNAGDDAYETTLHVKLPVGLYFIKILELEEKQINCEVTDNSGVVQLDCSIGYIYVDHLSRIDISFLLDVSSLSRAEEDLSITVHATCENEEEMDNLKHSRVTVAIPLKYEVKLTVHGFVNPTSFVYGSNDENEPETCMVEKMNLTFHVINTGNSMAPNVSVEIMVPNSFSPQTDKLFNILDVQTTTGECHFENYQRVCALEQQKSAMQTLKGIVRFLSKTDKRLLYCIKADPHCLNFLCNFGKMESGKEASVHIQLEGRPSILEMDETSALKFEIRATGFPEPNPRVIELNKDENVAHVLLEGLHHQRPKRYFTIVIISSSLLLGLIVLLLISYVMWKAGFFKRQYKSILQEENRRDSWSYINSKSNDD
Sequence of VLA-4 (P05556 21-798): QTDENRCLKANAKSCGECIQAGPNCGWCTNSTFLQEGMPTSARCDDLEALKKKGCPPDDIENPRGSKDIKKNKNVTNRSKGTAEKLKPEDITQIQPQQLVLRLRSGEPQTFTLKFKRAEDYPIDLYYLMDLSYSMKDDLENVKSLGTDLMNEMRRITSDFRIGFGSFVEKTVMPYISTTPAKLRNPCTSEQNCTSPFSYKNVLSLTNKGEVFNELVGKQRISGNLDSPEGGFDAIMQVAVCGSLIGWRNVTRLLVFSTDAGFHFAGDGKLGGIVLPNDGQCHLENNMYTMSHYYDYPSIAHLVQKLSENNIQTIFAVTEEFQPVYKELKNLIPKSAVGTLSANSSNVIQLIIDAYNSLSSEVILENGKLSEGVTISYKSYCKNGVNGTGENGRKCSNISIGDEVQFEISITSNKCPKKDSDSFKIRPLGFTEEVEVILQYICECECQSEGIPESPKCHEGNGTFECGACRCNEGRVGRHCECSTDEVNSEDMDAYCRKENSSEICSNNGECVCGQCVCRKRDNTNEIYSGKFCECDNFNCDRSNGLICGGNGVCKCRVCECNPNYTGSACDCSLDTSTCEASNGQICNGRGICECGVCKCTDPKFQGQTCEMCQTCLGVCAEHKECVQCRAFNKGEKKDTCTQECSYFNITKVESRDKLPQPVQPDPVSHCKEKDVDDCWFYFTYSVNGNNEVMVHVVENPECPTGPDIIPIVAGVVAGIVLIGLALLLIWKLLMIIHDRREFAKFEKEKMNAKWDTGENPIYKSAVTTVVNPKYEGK

Row | Compound | RELATIVE POTENCY (relative peptide inhibition of VLA-4 binding CS-1) [1] | RELATIVE POTENCY (relative peptide inhibition of VLA-4 binding CS-1)
1 | CC(C)C[C@H](NC(=O)Cc1ccccc1)C(=O)N[C@@H](CC(=O)O)C(=O)N[C@@H](CO)C(=O)N1CCC[C@@H]1C(N)=O [X L D S p phenylacetyl amide] (PhAc-LDS[dP]-NH2) | 17 | 
2 | CC(C)C[C@H](NC(=O)OCc1ccccc1)C(=O)N[C@@H](CC(=O)O)C(=O)N[C@@H](Cc1ccccc1)C(=O)N1CCC[C@@H]1C(N)=O [X L D F p benzyloxycarbonyl amide] (Cbz-LDF[dP]-NH2) |  | 34
3 | CC(C)C[C@H](NC(=O)Cc1cccnc1)C(=O)N[C@@H](CC(=O)O)C(=O)N[C@@H](Cc1ccccc1)C(=O)N1CCC[C@@H]1C(N)=O [X L D F p pyridine-3-acetyl amide] ({Acetyl(3-pyridyl)}-LDF[dP]-NH2) |  | 469
4 | CC(C)C[C@H](NC(=O)[C@H](N)Cc1ccccc1)C(=O)N[C@@H](CC(=O)O)C(=O)N[C@H](C(=O)N1CCC[C@@H]1C(=O)O)C(C)C [f L D V p free amine free acid] (H-[dF]LDV[dP]-OH) |  | 0
5 | CCCCCCCCCCNC(=O)[C@@H]1CCCN1C(=O)[C@H](Cc1ccccc1)NC(=O)[C@H](CC(=O)O)NC(=O)[C@H](CC(C)C)NC(=O)Cc1ccccc1 [X L D F P Z phenylacetyl decylamide] (PhAc-LDFP-NHDecyl) | 2 | 
6 | CCCCCCCCCC(=O)OC1CCN(C(=O)[C@H](Cc2ccccc2)NC(=O)[C@H](CC(=O)O)NC(=O)[C@H](CC(C)C)NC(=O)Cc2ccccc2)CC1 | 1 | 
7 | CC(C)C[C@H](NC(=O)C12CC3CC(CC(C3)C1)C2)C(=O)N[C@@H](CC(=O)O)C(=O)N[C@H](C(=O)N1CCC[C@@H]1C(N)=O)C(C)C [X L D V p adamantanecarbonyl amide] |  | 1
8 | CC(C)C[C@H](NC(=O)Cc1ccccc1)C(=O)N[C@@H](CC(=O)O)C(=O)N(Cc1ccccc1)Cc1ccccc1 [X L D Z phenylacetyl dibenzylamide] | 0 | 
9 | CC(C)C[C@H](NC(=O)Cc1ccccc1)C(=O)N[C@@H](CC(=O)O)C(=O)N[C@@H](Cc1ccc(O)cc1)C(=O)N1CCOCC1 [X L D Y Z phenylacetyl morpholinamide, N-phenylacetyl-Leu-Asp-Tyr-morpholinamide] (PhAc-Leu-Asp-Tyr-Morpholide) | 313 | 
10 | CC(C)C[C@H](NC(=O)[C@H](Cc1ccccc1)NC(=O)CCCCCNC(=O)CCCC[C@@H]1SC[C@@H]2NC(=O)N[C@@H]21)C(=O)N[C@@H](CC(=O)O)C(=O)N[C@@H](Cc1ccccc1)C(=O)N1CCC[C@@H]1C(N)=O [B Z F L D F p, N-(biotinoyl-ε-aminocaproyl)-Phe-Leu-Asp-Phe-D-Pro-NH2] ({Biotin-Ahx}-FLDF[dP]-NH2) |  | 150
11 | CC(C)C[C@H](NC(=O)Cc1ccccc1)C(=O)N[C@@H](CC(=O)O)C(=O)NC1Cc2ccccc2NC1=O (stereo partly drawn) | 31 | 
12 | CC[C@H](C)[C@H](N)C(=O)N[C@@H](CC(C)C)C(=O)N[C@@H](CC(=O)O)C(=O)N[C@@H](Cc1ccccc1)C(=O)N1CCC[C@@H]1C(N)=O [I L D F p free amine amide] (H-ILDF[dP]-NH2) |  | 2
13 | CC[C@H](C)[C@H](N)C(=O)N[C@@H](CC1CCCCC1)C(=O)N[C@@H](CC(=O)O)C(=O)N[C@H](C(=O)N1CCC[C@@H]1C(N)=O)C(C)C (H-I[Cha]DV[dP]-NH2) |  | < 1
14 | CC(C)C[C@H](NC(=O)Cc1ccccc1)C(=O)N[C@@H](CC(=O)O)C(=O)N[C@@H](Cc1ccccc1)C(=O)N1CCC(O)CC1 | 603 | 
15 | Cc1cccc(C)c1C(=O)N[C@@H](CC(C)C)C(=O)N[C@@H](CC(=O)O)C(=O)N[C@H](C(=O)N1CCC[C@@H]1C(N)=O)C(C)C [X L D V p 2,6-dimethylbenzoyl amide] |  | 5
16 | CC(C)C[C@H](NC(=O)c1ccccn1)C(=O)N[C@@H](CC(=O)O)C(=O)N[C@H](C(=O)N1CCC[C@@H]1C(N)=O)C(C)C [X L D V p pyridine-2-carbonyl amide] |  | 8
17 | CC(C)C[C@H](NC(=O)c1ccncc1)C(=O)N[C@@H](CC(=O)O)C(=O)N[C@@H](Cc1ccccc1)C(=O)N1CCC[C@@H]1C(N)=O [X L D F p pyridine-4-carbonyl amide] (Isonicotinoyl-LDF[dP]-NH2) |  | 656
18 | CC(C)C[C@H](NC(=O)c1ccc2ccccc2n1)C(=O)N[C@@H](CC(=O)O)C(=O)N[C@@H](Cc1ccccc1)C(=O)N1CCC[C@@H]1C(N)=O [X L D F p 2-quinolinecarbonyl amide] (Quinaldoyl-LDF[dP]-NH2) |  | 4
19 | CC(C)C[C@H](NC(=O)Cc1ccccc1)C(=O)N[C@@H](CC(=O)O)C(=O)N[C@H](C(=O)N1CCC[C@@H]1C(N)=O)c1ccccc1 (PhAc-LD[Phg][dP]-NH2) | 61 | 
20 | CC(C)C[C@H](NC(=O)c1cccnc1)C(=O)N[C@@H](CC(=O)O)C(=O)N[C@H](C(=O)N1CCC[C@@H]1C(N)=O)C(C)C [X L D V p pyridine-3-carbonyl amide] |  | 71
21 | CC(C)C[C@H](NC(=O)Cc1ccccc1)C(=O)N[C@@H](CC(=O)O)C(=O)N[C@@H](CCc1ccccc1)C(=O)N1CCC[C@@H]1C(N)=O (PhAc-LD[hPhe][dP]-NH2) | 94 | 
22 | CC(C)C[C@H](NC(=O)Cc1ccccc1)C(=O)N[C@@H](CC(=O)O)C(=O)NC1Cc2ccccc2N(CCN2CCOCC2)C1=O (stereo partly drawn) | 20 | 
23 | CCCCCCCCCCCCCCCCCC(=O)OC1CCN(C(=O)[C@H](Cc2ccccc2)NC(=O)[C@H](CC(=O)O)NC(=O)[C@H](CC(C)C)NC(=O)Cc2ccccc2)CC1 | 1 | 
24 | CC(C)C[C@H](NC(=O)Cc1ccccc1)C(=O)N[C@@H](CC(=O)O)C(=O)N[C@@H](Cc1ccc([N+](=O)[O-])cc1)C(=O)N1CCC[C@@H]1C(N)=O (PhAc-LD[Phe(4-NO2)][dP]-NH2) | 40 | 
25 | CC(C)C[C@H](N)C(=O)N[C@@H](CC(=O)O)C(=O)N[C@@H](Cc1ccccc1)C(=O)N1CCCCC1 [L D F Z free amine piperidinamide] (H-Leu-Asp-Phe-Piperidide) |  | 0
26 | CC(C)C[C@H](NC(=O)c1cnccn1)C(=O)N[C@@H](CC(=O)O)C(=O)N[C@@H](Cc1ccccc1)C(=O)N1CCC[C@@H]1C(N)=O [X L D F p 2-pyrazinecarbonyl amide] (Pyrazinecarbonyl-LDF[dP]-NH2) |  | 9
27 | CC(C)C[C@H](NS(=O)(=O)c1ccc(Br)cc1)C(=O)N[C@@H](CC(=O)O)C(=O)N[C@@H](Cc1ccccc1)C(=O)N1CCC[C@@H]1C(N)=O [X L D F p 4-bromophenylsulfonyl amide] (Brosyl-LDF[dP]-NH2) |  | < 1
28 | CC(C)C[C@H](NC(=O)c1cnc2ccccc2c1)C(=O)N[C@@H](CC(=O)O)C(=O)N[C@@H](Cc1ccccc1)C(=O)N1CCC[C@@H]1C(N)=O [X L D F p 3-quinolinecarbonyl amide] (Quinoline3carbonyl-LDF[dP]-NH2) |  | 56
29 | Cc1cccc(C(=O)N[C@@H](CC(C)C)C(=O)N[C@@H](CC(=O)O)C(=O)N[C@H](C(=O)N2CCC[C@@H]2C(N)=O)C(C)C)c1C [X L D V p 2,3-dimethylbenzoyl amide] |  | 9
30 | CC(C)C[C@H](NC(=O)CC1CCCCC1)C(=O)N[C@@H](CC(=O)O)C(=O)N[C@H](C(=O)N1CCC[C@@H]1C(N)=O)C(C)C [X L D V p cyclohexaneacetyl amide] |  | 2
